Results taken from patent publication US20080260724A1, “Drug Induced Exposure Of The Fungal Pro-Inflammatory Molecule Beta-Glucan” (priority 2005, published 2008).

Tests used:
[1] = test system: wild-type C. albicans (CAF2); experiment: β-glucan exposure: anti-β-glucan antibody staining, microscopy and FACS; type: cell-based; conditions: for Mean fluorescence intensity (MFI), anti-β-glucan staining: FACS with PE-labeled secondary antibody
Description: (§1) Fungi were grown overnight in YPD rich medium for yeast-form growth and RPMI 1640 for hyphal growth. C. albicans was grown at 37° C.; S. cerevisiae was grown at 30° C. For CF treatment, overnight cultures of C. albicans CAF2 were diluted 1:1,000 into fresh YPD or RPMI 1640 containing dilutions of CF (caspofungin acetate, Candidas formulation, Merck, Whitehouse Station, N.J., United States) and grown overnight. […] For viability, cells were stained with propidium iodide (Sigma, St. Louis, Mo., United States).
Fungi were grown overnight, washed, blocked in PBS+2% BSA, and stained with either the anti-β-glucan antibody (followed by Cy3- or PE-labeled secondary antibody), Alexa Fluor-labeled Dectin-CRD, or Dectin-CRD-anti-Myc. Staining with antibody and Dectin-CRD is described above for the screen. For staining with Dectin-CRD-anti-Myc, Dectin-CRD was preincubated with FITC-labeled anti-Myc (Invitrogen) at a ratio of 3.4 μg of Dectin-CRD+10 μl of anti-Myc, and then added to fungi at 1:100 on ice. Preincubation of Dectin-CRD with anti-Myc creates a probe with the same approximate size as the anti-β-glucan antibody but with the specificity of Dectin-1. Images of stained cells were taken using a Nikon TE2000-S microscope (Nikon, Tokyo, Japan) equipped with Spot RT camera (Diagnostic Instruments, Sterling Heights, Mich., United States) and processed in Photoshop (Adobe Systems, Palo Alto, Calif., United States). Fluorescence was quantified on a FACScalibur cytometer (Becton-Dickinson, Palo Alto, Calif., United States); cells were gated by forward and side scatter based on wild-type cell size and shape, and mean fluorescence intensity of 20,000 labeled cells was calculated using Cellquest software (Becton-Dickinson).
Cultures grown at one-quarter and one-eighth of the CF MIC50 (minimal inhibitory concentration to inhibit 50% of the organisms) were stained with anti-β-glucan antibody and Cy3-labeled secondary antibody (FIGS. 2A and D) for visualization by microscopy or with PE-labeled secondary antibody (FIG. 2B) for FACS quantification. […]

[2] = test system: wild-type C. albicans (CAF2); experiment: Viability by propidium iodide staining / microscopic examination; type: cell-based
Description: as §1
Cultures grown at one-quarter and one-eighth of the CF MIC50 (minimal inhibitory concentration to inhibit 50% of the organisms) were stained with anti-β-glucan antibody and Cy3-labeled secondary antibody (FIGS. 2A and D) for visualization by microscopy or with PE-labeled secondary antibody (FIG. 2B) for FACS quantification. […] Concurrently, cells were labeled briefly with propidium iodide to assess viability and visualized by epifluorescence microscopy or quantified by FACS (FIG. 2C). Cells grown overnight in YPD with or without CF were UV-inactivated and then exposed to BMDMs at a yeast:macrophage ratio of 10:1. Supernatants were taken at 6 h and assayed for TNFα (FIG. 2E).

[3] = test system: C. albicans CAF2; experiment: Growth inhibition of C. albicans by caspofungin (MIC50); type: cell-based; conditions: C. albicans CAF2 grown overnight in dilutions of CF
Description: as §1

[4] = test system: anti-β-glucan antibody; experiment: Blocking of anti-β-glucan antibody binding to gas1Δ mutant; conditions: S. cerevisiae gas1Δ
Description: Overnight cultures of strains were grown in YPD and stained with anti-β-glucan primary antibody (Biosupplies Inc., Parkville, Australia) and Cy3-labeled goat-anti-mouse secondary. […] Stained cells were adhered to clear-bottom plates with concanavalin A (Sigma) and scanned with Cellomics VTI fluorescence microscopic imager (Cellomics, Pittsburgh, Pa., United States) using Target Acquisition software (Zeiss, Oberkochen, Germany). Mean average intensity and standard deviation of average intensity measurements were used to identify strains with over two standard deviations greater β-glucan exposure. Initially matA mutant strains were screened, then the independently constructed matα counterparts were screened. […]
Fungi were grown overnight, washed, blocked in PBS+2% BSA, and stained with either the anti-β-glucan antibody (followed by Cy3- or PE-labeled secondary antibody), Alexa Fluor-labeled Dectin-CRD, or Dectin-CRD-anti-Myc. […] Fluorescence was quantified on a FACScalibur cytometer (Becton-Dickinson, Palo Alto, Calif., United States); cells were gated by forward and side scatter based on wild-type cell size and shape, and mean fluorescence intensity of 20,000 labeled cells was calculated using Cellquest software (Becton-Dickinson).

[5] = test system: β-glucan receptor; experiment: Laminarin preincubation of BMDMs (β-glucan receptor blocking), cytokine ELISA; type: cell-based, BL/6 mice
Description: RAW264.7 macrophages (ATCC, Manassas, Va., United States) were cultured in RPMI-10 (RPMI 1640 with 10% heat-inactivated fetal bovine serum and standard concentrations of penicillin-streptomycin; GIBCO, San Diego, Calif., United States). Cells were collected and plated in 24-well plates at 5×10^5 cells/well. Bone marrow derived macro-phages (BMDMs) were differentiated as described (Brown G D, et al., (2003), J Exp Med 197:1119). Briefly, bone marrow from BL/6 mice was cultured in RPMI-10 with 15% L-cell conditioned media and 25 ng/ml recombinant M-CSF (R&D Systems, Minneapolis, Minn., United States). Cells were collected after 6 d and plated in 24-well plates at 5×10^5 cells/well.
Fungi were grown overnight, washed extensively to remove any shed proteins or polysaccharides, and normalized by OD600 or hemacytometer (these two methods produced equivalent results). For S. cerevisiae, live fungi were added to RAW264.7 macrophages at equivalent effector:target (E:T) ratio of 1:5 in 24-well plates and incubated for 6 h, when supernatants were collected for ELISA. […]
In FIG. 1A, C. albicans strains were exposed to RAW264.7 macrophages at a ratio of 2:1 (yeast:macrophage), and supernatants were collected after 6 h. […] After unbound fungi were washed off, macrophages were incubated for 6 h at 37° C., and supernatants were collected for TNFα quantitation.

| Substance | Mean fluorescence intensity (MFI), anti-β-glucan staining ([1]; one-eighth the CF MIC50, YPD) | Mean fluorescence intensity (MFI), anti-β-glucan staining ([1]; one-quarter the CF MIC50, YPD) | exposure of β-glucan on hyphae ([1]; subinhibitory doses of CF, RPMI 1640 (hyphal growth)) | viability of fungi ([2]; sub-inhibitory CF concentrations, YPD, propidium iodide) | cell death of hyphae ([2]; subinhibitory CF, RPMI 1640, microscopic examination) | MIC50 [3] | binding of anti-β-glucan antibody to gas1Δ mutant in presence of soluble β-glucan [4] | increased elicitation of pro-inflammatory cytokines by unmasked C. albicans mutants after laminarin preincubation ([5]; BMDMs preincubated 20 min on ice, yeast:macrophage 10:1, 6 h) | stimulation of macrophages by laminarin alone ([5]; BMDMs, 100 μg/ml laminarin, no fungi, TNFα) |
| --- | --- | --- | --- | --- | --- | --- | --- | --- | --- |
| caspofungin acetate [CF] | 65 | 161 | dramatic increase | without loss of viability | did not show increased cell death | 2.5 ng/mL |  |  |  |
| laminarin |  |  |  |  |  |  | blocked | great majority of the increased elicitation of pro-inflammatory cytokines could be blocked | does not stimulate |
